According to patent US6930091B2, “Peptides and remedy for bone diseases containing the same as active ingredient” (priority 1995, dated 2005):
Where no end group is shown, it is not given here.

System: ddy male mice
Settings: mouse, in vivo, iv
Method: By using the peptide prepared in Example 1, its acute toxicity was tested on ddy male mice (with the body weight ranging from 40 to 45 g). The present peptide was dissolved in a physiological saline (pH 6.0) and the solution thereof was administered intravenously into a vein in the tail of each mouse, and observation was made for 14 days. The dosage amount was set respectively at 1, 10, and 100 μg/kg.

Q: With “KLTTIFPLNWKYRKAL [Example 1, Lys Leu Thr Thr Ile Phe Pro Leu Asn Trp Lys Tyr Arg Lys Ala Leu]” as the sequence, how does the “Deceased mice (in words)” value read?
A: The value was “not deceased mouse observed”.

Q: What about the “Number of Deceased Mice” value of the same sequence?
A: Its value is 0/5.
